The subject of this assay is mice, P1798 lymphosarcoma sc, survival or tumor weight T/C. Description: NCI In Vivo Anticancer Drug Screen. Data for tumor model P1798 Lymphosarcoma (subcutaneous) in unknown mice. Here is the method:
The antitumor activity of compounds was measured in mice bearing transplantable tumors. Survival or tumor size were measured and the results are expressed as the measurement made in the treated group (T) divided by the measurement made in the vehicle treated control group (C). The tumor model used in this assay is P1798 Lymphosarcoma (subcutaneous) in unknown mice

[1] abbreviates: endpoint: mean tumor weight, dose: 0.12 mg/kg/injection, schedule: Q01DX010 (ip), vehicle: saline, higher = larger tumour.
Setting [2] is: endpoint: mean tumor weight, dose: 0.25 mg/kg/injection, schedule: Q01DX010 (ip), vehicle: saline, higher = larger tumour.
Setting [3] is: endpoint: mean tumor weight, dose: 12.5 mg/kg/injection, schedule: Q01DX010 (ip), vehicle: carboxymethylcellulose (CMC), higher = larger tumour.
Where [4] appears, read: endpoint: mean tumor weight, dose: 25.0 mg/kg/injection, schedule: Q01DX010 (ip), vehicle: carboxymethylcellulose (CMC), higher = larger tumour.
[5] abbreviates: endpoint: mean tumor weight, dose: 50.0 mg/kg/injection, schedule: Q01DX010 (ip), vehicle: carboxymethylcellulose (CMC), higher = larger tumour.

Several values for one entry are separate records, joined by “and”; a condition that tells them apart may be missing. Identical values can stand only once. Results filed as inconclusive are left out.

Regarding `COc1cc2c(c(OC)c1OC)-c1ccc(OC)c(=O)cc1[C@@H](NC(C)=O)CC2`, the T/C is 50 % of control under setting [1]; 59 % of control under setting [2]; 5 % of control (endpoint: mean tumor weight, dose: 0.5 mg/kg/injection, schedule: Q01DX010 (ip), vehicle: saline, higher = larger tumour).
As for `CCCNc1ncnc2[nH]ncc12`, the T/C (endpoint: mean tumor weight, dose: 5.0 mg/kg/injection, schedule: Q01DX010 (ip), vehicle: water, higher = larger tumour) was 71 % of control and the T/C (endpoint: mean tumor weight, dose: 10.0 mg/kg/injection, schedule: Q01DX010 (ip), vehicle: water, higher = larger tumour) was 54 % of control.
With `Cn1c(N)nc2nc[nH]c2c1=S`, the T/C (endpoint: mean tumor weight, dose: 3.1 mg/kg/injection, schedule: Q01DX010 (ip), vehicle: carboxymethylcellulose (CMC), higher = larger tumour) is 105 % of control; the T/C (endpoint: mean tumor weight, dose: 6.3 mg/kg/injection, schedule: Q01DX010 (ip), vehicle: carboxymethylcellulose (CMC), higher = larger tumour) was 59 % of control; the T/C (endpoint: mean tumor weight, dose: 10.0 mg/kg/injection, schedule: Q01DX010 (ip), vehicle: saline, higher = larger tumour) is 102 % of control; the T/C under setting [3] is 91 % of control; the T/C (endpoint: mean tumor weight, dose: 20.0 mg/kg/injection, schedule: Q01DX010 (ip), vehicle: saline, higher = larger tumour) was 99 % of control; the T/C under setting [4] was 101 % of control. The T/C is 122 % of control (endpoint: mean tumor weight, dose: 40.0 mg/kg/injection, schedule: Q01DX010 (ip), vehicle: saline, higher = larger tumour) and 114 % of control (endpoint: mean tumor weight, dose: 80.0 mg/kg/injection, schedule: Q01DX010 (ip), vehicle: saline, higher = larger tumour).
On to `CSc1ncnc2nc[nH]c12`, for which the T/C is 45 % of control under setting [4]; 61 % of control under setting [5]; 56 % of control (endpoint: mean tumor weight, dose: 100.0 mg/kg/injection, schedule: Q01DX010 (ip), vehicle: carboxymethylcellulose (CMC), higher = larger tumour).
In the case of `Nc1nc(F)nc2c1ncn2C1OC(CO)C(O)C1O` (configuration not stated), the T/C (endpoint: mean tumor weight, dose: 0.75 mg/kg/injection, schedule: Q01DX011 (ip), vehicle: saline, higher = larger tumour) was 73 % of control and the T/C (endpoint: mean tumor weight, dose: 1.5 mg/kg/injection, schedule: Q01DX011 (ip), vehicle: saline, higher = larger tumour) was 30 % of control.
On to `NC(=O)N(CCCl)N=O`, for which the T/C by setting is: (endpoint: mean tumor weight, dose: 1.0 mg/kg/injection, schedule: Q01DX010 (ip), vehicle: carboxymethylcellulose (CMC), higher = larger tumour) 104 % of control; (endpoint: mean tumor weight, dose: 2.0 mg/kg/injection, schedule: Q01DX010 (ip), vehicle: carboxymethylcellulose (CMC), higher = larger tumour) 115 % of control; (endpoint: mean tumor weight, dose: 4.0 mg/kg/injection, schedule: Q01DX010 (ip), vehicle: carboxymethylcellulose (CMC), higher = larger tumour) 116 % of control; (endpoint: mean tumor weight, dose: 8.0 mg/kg/injection, schedule: Q01DX010 (ip), vehicle: carboxymethylcellulose (CMC), higher = larger tumour) 61 % of control.
For the molecule `CN(Cc1cnc2nc(N)nc(N)c2n1)c1ccc(C(=O)N[C@@H](CCC(=O)O)C(=O)O)cc1`, the T/C reads like this: (endpoint: mean tumor weight, dose: 0.15 mg/kg/injection, schedule: Q01DX010 (ip), vehicle: other, higher = larger tumour) 79 % of control and 101 % of control; (endpoint: mean tumor weight, dose: 0.16 mg/kg/injection, schedule: Q01DX010 (ip), vehicle: other, higher = larger tumour) 118 % of control; (endpoint: mean tumor weight, dose: 0.39 mg/kg/injection, schedule: Q01DX010 (sc), vehicle: other, higher = larger tumour) 28 % of control; (endpoint: mean tumor weight, dose: 0.5 mg/kg/injection, schedule: Q01DX011 (ip), vehicle: carboxymethylcellulose (CMC), higher = larger tumour) 33 % of control; (endpoint: mean tumor weight, dose: 0.65 mg/kg/injection, schedule: Q01DX010 (sc), vehicle: other, higher = larger tumour) 50 % of control; (endpoint: mean tumor weight, dose: 1.0 mg/kg/injection, schedule: Q01DX011 (ip), vehicle: carboxymethylcellulose (CMC), higher = larger tumour) 1 % of control. Moreover, the T/C (endpoint: mean tumor weight, dose: 1.08 mg/kg/injection, schedule: Q01DX010 (sc), vehicle: other, higher = larger tumour) is 18 % of control; the T/C (endpoint: mean tumor weight, dose: 11.0 mg/kg/injection, schedule: Q01DX001 (ip), vehicle: carboxymethylcellulose (CMC), higher = larger tumour) is 78 % of control; the T/C (endpoint: mean tumor weight, dose: 22.0 mg/kg/injection, schedule: Q01DX001 (ip), vehicle: carboxymethylcellulose (CMC), higher = larger tumour) is 74 % of control; the T/C (endpoint: mean tumor weight, dose: 43.0 mg/kg/injection, schedule: Q01DX001 (ip), vehicle: carboxymethylcellulose (CMC), higher = larger tumour) is 44 % of control; the T/C (endpoint: median survival time, dose: 0.31 mg/kg/injection, schedule: Q01DX010 (ip), vehicle: sodium bicarbonate, higher = longer survival) is 101 % of control; the T/C (endpoint: median survival time, dose: 0.62 mg/kg/injection, schedule: Q01DX010 (ip), vehicle: sodium bicarbonate, higher = longer survival) is 103 % of control. Moreover, the T/C reads like this: (endpoint: median survival time, dose: 0.63 mg/kg/injection, schedule: Q01DX010 (ip), vehicle: sodium bicarbonate, higher = longer survival) 103 % of control; (endpoint: median survival time, dose: 1.25 mg/kg/injection, schedule: Q01DX010 (ip), vehicle: sodium bicarbonate, higher = longer survival) 113 % of control; (endpoint: median survival time, dose: 2.5 mg/kg/injection, schedule: Q01DX010 (ip), vehicle: sodium bicarbonate, higher = longer survival) 33 % of control; (endpoint: median survival time, dose: 4.0 mg/kg/injection, schedule: Q04DX007 (ip), vehicle: sodium bicarbonate, higher = longer survival) 76 % of control; (endpoint: median survival time, dose: 5.0 mg/kg/injection, schedule: Q01DX010 (ip), vehicle: sodium bicarbonate, higher = longer survival) 37 % of control; (endpoint: median survival time, dose: 8.0 mg/kg/injection, schedule: Q04DX007 (ip), vehicle: sodium bicarbonate, higher = longer survival) 76 % of control. In addition, the T/C is, setting by setting: (endpoint: median survival time, dose: 16.0 mg/kg/injection, schedule: Q04DX007 (ip), vehicle: saline, higher = longer survival) 161 % of control; (endpoint: median survival time, dose: 16.0 mg/kg/injection, schedule: Q04DX007 (ip), vehicle: sodium bicarbonate, higher = longer survival) 74 % of control; (endpoint: median survival time, dose: 32.0 mg/kg/injection, schedule: Q04DX007 (ip), vehicle: saline, higher = longer survival) 170 % of control; (endpoint: median survival time, dose: 32.0 mg/kg/injection, schedule: Q04DX007 (ip), vehicle: sodium bicarbonate, higher = longer survival) 29 % of control; (endpoint: median survival time, dose: 64.0 mg/kg/injection, schedule: Q04DX007 (ip), vehicle: sodium bicarbonate, higher = longer survival) 25 % of control.
On to `O=C(O)CCCc1ccc(N(CCCl)CCCl)cc1`, for which the T/C reads like this: (endpoint: mean tumor weight, dose: 3.12 mg/kg/injection, schedule: Q01DX010 (ip), vehicle: carboxymethylcellulose (CMC), higher = larger tumour) 86 % of control; (endpoint: mean tumor weight, dose: 6.25 mg/kg/injection, schedule: Q01DX010 (ip), vehicle: carboxymethylcellulose (CMC), higher = larger tumour) 89 % of control; under setting [3], 104 % of control; under setting [4], 73 % of control.
Turning to `C1CN1c1nc(N2CC2)nc(N2CC2)n1`, the T/C (endpoint: mean tumor weight, dose: 0.06 mg/kg/injection, schedule: Q01DX010 (ip), vehicle: saline, higher = larger tumour) is 77 % of control and 78 % of control; the T/C under setting [1] was 78 % of control and 86 % of control; the T/C under setting [2] was 44 % of control and 54 % of control.
Consider `CC(=O)O[C@]1(C(C)=O)CC[C@H]2[C@@H]3C[C@H](C)C4=CC(=O)C=C[C@]4(C)[C@@]3(F)[C@@H](O)C[C@@]21C`, for which the T/C runs as follows: (endpoint: mean tumor weight, dose: 5.0 mg/kg/injection, schedule: Q01DX010 (sc), vehicle: steriod suspending solution, higher = larger tumour) 87 % of control; (endpoint: mean tumor weight, dose: 10.0 mg/kg/injection, schedule: Q01DX010 (sc), vehicle: steriod suspending solution, higher = larger tumour) 106 % of control; (endpoint: mean tumor weight, dose: 20.0 mg/kg/injection, schedule: Q01DX010 (sc), vehicle: steriod suspending solution, higher = larger tumour) 74 % of control; (endpoint: mean tumor weight, dose: 40.0 mg/kg/injection, schedule: Q01DX010 (sc), vehicle: steriod suspending solution, higher = larger tumour) 47 % of control.
Regarding `CCNc1nncs1`, the T/C by setting is: (endpoint: mean tumor weight, dose: 18.0 mg/kg/injection, schedule: Q01DX010 (ip), vehicle: carboxymethylcellulose (CMC), higher = larger tumour) 93 % of control; (endpoint: mean tumor weight, dose: 37.0 mg/kg/injection, schedule: Q01DX010 (ip), vehicle: carboxymethylcellulose (CMC), higher = larger tumour) 67 % of control.
Take `Nc1ncnc2c1ncn2C1OC(CO)CC1O` (configuration not stated): the T/C (endpoint: mean tumor weight, dose: 37.5 mg/kg/injection, schedule: Q01DX010 (ip), vehicle: carboxymethylcellulose (CMC), higher = larger tumour) was 111 % of control and the T/C (endpoint: mean tumor weight, dose: 75.0 mg/kg/injection, schedule: Q01DX010 (ip), vehicle: carboxymethylcellulose (CMC), higher = larger tumour) is 85 % of control.
Turning to `O=C(O)c1ccc(-c2ccccc2)cc1`, the T/C is 101 % of control (endpoint: mean tumor weight, dose: 62.5 mg/kg/injection, schedule: Q01DX010 (ip), vehicle: carboxymethylcellulose (CMC), higher = larger tumour); 92 % of control (endpoint: mean tumor weight, dose: 125.0 mg/kg/injection, schedule: Q01DX010 (ip), vehicle: carboxymethylcellulose (CMC), higher = larger tumour); 95 % of control (endpoint: mean tumor weight, dose: 250.0 mg/kg/injection, schedule: Q01DX010 (ip), vehicle: carboxymethylcellulose (CMC), higher = larger tumour).
Take `C[C@]12CCC(=O)C=C1CC[C@@H]1[C@@H]2C(=O)C[C@@]2(C)[C@H]1CC[C@]2(O)C(=O)CO`: the T/C (endpoint: mean tumor weight, dose: 100.0 mg/kg/injection, schedule: Q01DX010 (sc), vehicle: steriod suspending solution, higher = larger tumour) was 7 % of control and the T/C (endpoint: mean tumor weight, dose: 200.0 mg/kg/injection, schedule: Q01DX010 (sc), vehicle: steriod suspending solution, higher = larger tumour) was 1 % of control.
Take `Nc1nc(=S)c2[nH]cnc2[nH]1`: the T/C runs as follows: (endpoint: mean tumor weight, dose: 0.12 mg/kg/injection, schedule: Q01DX010 (ip), vehicle: carboxymethylcellulose (CMC), higher = larger tumour) 77 % of control; (endpoint: mean tumor weight, dose: 0.25 mg/kg/injection, schedule: Q01DX010 (ip), vehicle: carboxymethylcellulose (CMC), higher = larger tumour) 64 % of control; (endpoint: mean tumor weight, dose: 0.5 mg/kg/injection, schedule: Q01DX010 (ip), vehicle: carboxymethylcellulose (CMC), higher = larger tumour) 81 % of control.
For the molecule `CC(C)=C(Br)CC[C@@H](C)[C@H]1CC[C@@]2(C)C3=C(CC[C@]12C)[C@@]1(C)CC[C@H](O)C(C)(C)[C@@H]1CC3`, the T/C by setting is: (endpoint: mean tumor weight, dose: 100.0 mg/kg/injection, schedule: Q01DX011 (sc), vehicle: steriod suspending solution, higher = larger tumour) 151 % of control; (endpoint: mean tumor weight, dose: 200.0 mg/kg/injection, schedule: Q01DX011 (sc), vehicle: steriod suspending solution, higher = larger tumour) 186 % of control.
As for `CS(=O)(=O)OCCCl`, the T/C was 89 % of control under setting [4] and 88 % of control under setting [5].
